In ChEMBL document CHEMBL1201862, “PubChem BioAssay data set” (2004):
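Interpolation was linear, between the two tested concentrations surrounding the appropriate level; five concentrations were tested over 48 hours in 96-well plates. Here, GI50 denotes the concentration required for 50% inhibition of growth.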 Activity calls are given as the source filed them. No stated cut-off is given here; in the data, active = GI50 up to about 1.1 µM and inactive = higher.

Assays:
Assay in all cases: NCI-60 cell line screen, 48 h
SW-620 = tested on: SW-620
SN12C = tested on: SN12C
MOLT-4 = tested on: MOLT-4
HOP-62 = tested on: HOP-62
NCI-H226 = tested on: NCI-H226
A498 = tested on: A498
OVCAR-5 = tested on: OVCAR-5
ACHN = tested on: ACHN
UO-31 = tested on: UO-31
TK-10 = tested on: TK-10
CAKI-1 = tested on: CAKI-1
A549 = tested on: A549
OVCAR-3 = tested on: OVCAR-3
SK-MEL-28 = tested on: SK-MEL-28
DLD-1 = tested on: DLD-1
IGROV-1 = tested on: IGROV-1
HCC 2998 = tested on: HCC 2998

Measured: GI50

C=C(C)C1CC=C(C)CC1 (stereo not given)
inactive: SW-620 895 µM | SN12C 893 µM | MOLT-4 1140 µM | HOP-62 883 µM | NCI-H226 830 µM | A498 906 µM | OVCAR-5 968 µM | ACHN 871 µM | UO-31 925 µM | TK-10 1000 µM | CAKI-1 935 µM | A549 968 µM | OVCAR-3 891 µM | SK-MEL-28 951 µM | DLD-1 885 µM | IGROV-1 993 µM | HCC 2998 973 µM

O=C(CC(=O)c1ccccc1)C(=O)NC12CC3CC(CC(C3)C1)C2
inactive: SW-620 > 41.6 µM | SN12C > 100 µM | MOLT-4 > 100 µM | HOP-62 > 100 µM | NCI-H226 > 100 µM | A498 > 100 µM | OVCAR-5 > 100 µM | ACHN > 100 µM | UO-31 > 100 µM | TK-10 > 100 µM | CAKI-1 > 100 µM | A549 > 54.1 µM | OVCAR-3 > 100 µM | SK-MEL-28 > 100 µM | DLD-1 > 47.5 µM | IGROV-1 > 100 µM | HCC 2998 > 100 µM

Cc1cccc(N2C(=O)C(Cl)=C(Cl)C2=O)c1
inactive: SW-620 > 44 µM | SN12C > 80.5 µM | MOLT-4 33.9 µM | HOP-62 > 100 µM | NCI-H226 > 100 µM | A498 > 100 µM | OVCAR-5 > 100 µM | ACHN > 49.1 µM | UO-31 > 100 µM | TK-10 > 66.8 µM | CAKI-1 > 42.3 µM | A549 > 100 µM | OVCAR-3 > 50.6 µM | SK-MEL-28 > 54.5 µM | DLD-1 > 43 µM | IGROV-1 > 100 µM | HCC 2998 > 100 µM

CCN(CC)CCC1(C2CCCCC2)CCC(=O)NC1=O (stereo not given)
inactive: SW-620 > 100 µM | SN12C > 100 µM | MOLT-4 > 100 µM | HOP-62 > 100 µM | NCI-H226 > 100 µM | A498 > 100 µM | OVCAR-5 > 100 µM | ACHN > 100 µM | UO-31 > 100 µM | TK-10 > 100 µM | CAKI-1 > 100 µM | A549 > 100 µM | OVCAR-3 > 100 µM | SK-MEL-28 > 100 µM | DLD-1 > 100 µM | IGROV-1 > 100 µM | HCC 2998 > 100 µM

N=C(N)NS(=O)(=O)c1ccc(NC(=O)c2cccc3c(N)c4ccccc4nc23)cc1
inactive: SW-620 > 100 µM | SN12C > 100 µM | MOLT-4 42 µM | HOP-62 > 100 µM | NCI-H226 > 100 µM | A498 > 100 µM | OVCAR-5 > 100 µM | ACHN > 100 µM | UO-31 55.8 µM | TK-10 > 100 µM | CAKI-1 > 100 µM | A549 > 100 µM | OVCAR-3 84.9 µM | SK-MEL-28 > 100 µM | DLD-1 > 100 µM | IGROV-1 > 100 µM | HCC 2998 > 100 µM
